From patent publication US7361643B2, “Methods for inhibiting angiogenesis” (University of Puerto Rico, priority 2000, dated 2008)
Entries after “also recorded” stand apart in the source; their conditions may differ.

How the values were obtained:
protein N-glycosylation = settings: control cells and isoproterenol-treated cells, BANERJEE et al. (1993); cited from earlier work
[1] = tested on: bovine adrenal medullary microvascular endothelial cells; test: Morphology by light microscopy and scanning electron microscopy; type: cell-based; settings: 1 μg/ml tunicamycin, 2% (v/v) FBS
Procedure: The synchronized population of the above described bovine capillary endothelial cells was exposed to tunicamycin (lot number 10922120-07 from Boehringer-Mannheim, Indianapolis, Ind.) with no history of protein synthesis inhibition, for different lengths of time at various concentrations, as shown, e.g., in FIG. 3, in a complete EMEM containing 2% (v/v) fetal bovine serum (FBS) (heat-inactivated) at 37° C. to evaluate the morphological changes. The cells were monitored by phase-contrast light microscopy as well as by scanning electron microscopy.
For scanning electron microscopy, 5×10^3 cells were cultured on 13 mm round Thermanox coverslips in 12 well clusters (COSTAR) in complete EMEM. Cells were synchronized as mentioned above and cultured in EMEM containing either 2% (v/v) FBS (control), 10% (v/v) FBS or 2% (v/v) FBS plus 1 μg/ml tunicamycin. The coverslips were removed at specified times and the cells were fixed in 2.5% (v/v) glutaraldehyde for 30 minutes. The cells were washed three times (10 minutes each) with Millonigs (1961) isotonic phosphate buffer, pH 7.3, and treated with 1% (w/v) osmium tetroxide for 15 minutes. See MILLONIG, “Advantages of a Phosphate Buffer for Osmium Tetroxide Solutions in Fixation”, J. Appl. Physics, 32:1637 (1961), the disclosure of which is herein incorporated by reference in its entirety. […]

tunicamycin
glycosylation (protein N-glycosylation): reduced glycosylation
morphology by light microscopy [1]: cell shrinkage, loss of membrane contact with neighboring cells, apparent compaction of nuclei showing condensed pyknotic appearance and membrane fragmentation; also recorded: cell shrinkage, loss of membrane contact with neighboring cells, apparent compaction of nuclei showing condensed pyknotic appearance, and membrane fragmentation
surface morphology by scanning electron microscopy ([1]; 96 hours): considerable surface blebbing; also recorded: enormous surface blebbing
